For assay [1], the target named is T1, mTOR-raptor complex (Rattus norvegicus, UniProt P42346+Q8N122).
T1 construct: rows headed: amount of HA-raptor that coimmunoprecipitated with AU1-mTOR; other: extracts incubated with increasing concentrations; amount of HA-raptor that coimmunoprecipitated with AU1-mTOR; other: overexpressed in 293T cells, increasing concentrati; half maximal effect on raptor dissociation from mTOR; other: AU1-mTOR and HA-raptor overexpressed in 293T cells, 1 h; association of AU1-mTOR and HA-rapto
Put plainly: Coimmunoprecipitation of raptor with mTOR, compound added to cell extracts or immune complexes. Particulars: for amount of HA-raptor that coimmunoprecipitated with AU1-mTOR: extracts incubated with increasing concentrations. It counts as binding. On the procedure:
293T cells were transfected with pcDNA3 alone (Vec.) or with a combination of pcDNA3AU1-mTOR, pcDNA33HA-Raptor, and pcDNA33HA-mLST8. Extracts of the cells were incubated with increasing concentrations of FTS before AU1-mTOR was immunoprecipated. Samples of the immune complexes were incubated with [γ-^32P]ATP and recombinant [His^6]PHAS-I, then subjected to SDS-PAGE and transferred to an immobilon membrane. After obtaining a phosphorimage of the membrane to detect ^32P-PHAS-I, the membrane was immunoblotted with PThr^36/45 antibodies. Other samples of the immune complexes were subjected to SDS-PAGE and immunoblots were prepared with antibodies to the HA epitope or to mTOR (see FIG. 13A). Extracts of nontransfected 293T cells were incubated with increasing concentrations of FTS before mTOR was immunoprecipated with mTAb1. A control immunoprecipitation was conducted using nonimmune IgG (NI). Immune complexes were subjected to SDS-PAGE and immunoblots were prepared with antibodies to mLST8, mTOR, and raptor.
Samples of extracts from 293T cells overexpressing AU1-mTOR, HA-raptor, and HA-mLST8 were incubated for 1 h with increasing concentrations of FTS (●, ▴, ▪) or GTS (∘, Δ, □) before immunoprecipitations were conducted with anti-AU1 antibodies. mTOR kinase activity (●, ∘) was determined by measuring ^32P incorporation into [His^6]PHAS-I in immune complex kinases assays performed with [γ-^32P]ATP (see FIG. 14A). The relative amounts of HA-raptor (▴, Δ) and HA-mLST8 (▪, □) that coimmunoprecipitated with AU1-mTOR were determined after immunoblotting with anti-HA antibodies (see FIG. 14B). The results (mean values+S.E. from 5 experiments) are expressed as percentages of the mTOR activity (FIG. 14A) or coimmunoprecipitating proteins (FIG. 14B) from samples incubated without FTS or GTS, and have been corrected for the amounts of AU1-mTOR immunoprecipitated.
293T cells were transfected with pcDNA3 alone (Vec.) or with a combination of pcDNA3AU1-mTOR, pcDNA33HARaptor, and pcDNA33HA-mLST8. AU1-mTOR was immunoprecipitated and samples of the washed immune complexes were at incubated […] for 30 min with no inhibitors or with the following: caffeine (1 mM), FTS (50 μM), LY294002 (10 μM), rapamycin (1 μM) plus FKBP12 (10 μM), and 1 μM wortmannin. To prevent destruction of wortmannin, incubations were conducted in the absence of thiol reducing agents. Samples of the immune complexes were incubated for 10 min with 10 mM MnCl2, 1 mM [γ-^32P]ATP, and 50 μg/ml [His^6]PHAS-I to assess mTOR activity. Other samples were rinsed twice, subjected to SDS-PAGE, and immunoblotted with anti-HA and anti-AU1 antibodies to determine the amounts of HA-raptor and HA-mLST8 associated with AU1-mTOR. The relative amounts of ^32P incorporated into PHAS-I were determined by phosphorimaging (see FIG. 15B).

In assay [2] the target is T1, mTOR-raptor complex. The assay is described as follows: Coimmunoprecipitation of raptor with mTOR from 293T cells incubated with compound. It counts as cell-based. Particulars: overexpressed in 293T cells, increasing concentrations, 1 h. On the procedure: FIG. 11A & 11B represent data showing FTS inhibits PHAS-I phosphorylation and promotes dissociation of the mTOR-raptor complex in 293T cells. 293T cells were transfected with pcDNA3AU1-mTOR, pcDNA33HARaptor, pcDNA33HA-mLST8, and pCMV-Tag3APHAS-I (FIG. 11A). After 18 h the cells were incubated for 1 h with increasing concentrations of FTS before extracts were prepared. A sample of each extract was subjected to SDS-PAGE and immunoblotted to detect PHAS-I or PThr^36/45. AU1-mTOR was also immunoprecipitated from each extract, and immune complexes were subjected to SDSPAGE and immunoblotted with mTAb2, to detect mTOR, and with anti-HA antibodies, to detect HA-mLST8 and HA-raptor. Nontransfected 293T cells were incubated with increasing concentrations of FTS for 1 h before extracts were prepared. mTOR was immunoprecipitated with mTAb1, and samples were subjected to SDS-PAGE.
FIGS. 12A & 12B represent data showing the effects of incubating cells with increasing concentrations of FTS and GTS on mTOR activity and mTOR association with raptor and mLST8. AU1-mTOR, HA-raptor, and HAmLST8 were overexpressed in 293T cells. The cells were then incubated for 1 h with increasing concentrations of FTS (●, ▴, ▪) or GTS (∘, Δ, □) before extracts were prepared. Immunoprecipitations were then conducted with anti-AU1 antibodies. mTOR kinase activity (●, ∘) was determined by measuring ^32P incorporation into [His^6]PHAS-I in immune complex kinases assays performed with [γ-^32P]ATP. The relative amounts of HA-raptor (▴, Δ) and HA-mLST8 (▪, □) that coimmunoprecipitated with AU1-mTOR were determined after immunoblotting with anti-HA antibodies. The results (mean values±S.E. from 3 experiments) are expressed as percentages of the mTOR activity (FIG. 12A) or coimmunoprecipitating proteins (FIG. 12B) from samples incubated without FTS or GTS, and have been corrected for the amounts of AU1-mTOR immunoprecipitated.
To investigate further the inhibitory effects of FTS on mTOR signaling, the effect of the drug on the association of mTOR, raptor, and mLST8 was determined. AU1-mTOR and HA-tagged forms of raptor and mLST8 were overexpressed in 293T cells, which were then incubated with increasing concentrations of FTS before AU1-mTOR was immunoprecipitated with anti-AU1 antibodies. Immunoblots were prepared with anti-HA antibodies to assess the relative amounts of HA-raptor and HA-mLST8 that coimmunoprecipitated with AU 1-mTOR (FIG. 11A).
Results obtained with overexpressed proteins are not necessarily representative of responses of endogenous proteins. Therefore, experiments were conducted to investigate the effect FTS on the endogenous TORC1 in nontransfected cells. […]

Each structure is given as a SMILES string.

T1 sequence (Q9BVC4 whole entry): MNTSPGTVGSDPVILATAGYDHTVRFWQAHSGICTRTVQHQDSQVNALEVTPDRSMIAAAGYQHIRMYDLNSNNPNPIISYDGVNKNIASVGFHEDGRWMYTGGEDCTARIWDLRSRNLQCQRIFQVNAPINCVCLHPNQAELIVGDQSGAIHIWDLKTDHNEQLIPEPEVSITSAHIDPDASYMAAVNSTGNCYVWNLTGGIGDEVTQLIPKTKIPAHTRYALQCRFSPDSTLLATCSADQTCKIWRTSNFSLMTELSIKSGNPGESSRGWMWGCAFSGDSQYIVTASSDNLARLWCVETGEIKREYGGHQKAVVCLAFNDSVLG
T1 sequence (Q8N122 whole entry): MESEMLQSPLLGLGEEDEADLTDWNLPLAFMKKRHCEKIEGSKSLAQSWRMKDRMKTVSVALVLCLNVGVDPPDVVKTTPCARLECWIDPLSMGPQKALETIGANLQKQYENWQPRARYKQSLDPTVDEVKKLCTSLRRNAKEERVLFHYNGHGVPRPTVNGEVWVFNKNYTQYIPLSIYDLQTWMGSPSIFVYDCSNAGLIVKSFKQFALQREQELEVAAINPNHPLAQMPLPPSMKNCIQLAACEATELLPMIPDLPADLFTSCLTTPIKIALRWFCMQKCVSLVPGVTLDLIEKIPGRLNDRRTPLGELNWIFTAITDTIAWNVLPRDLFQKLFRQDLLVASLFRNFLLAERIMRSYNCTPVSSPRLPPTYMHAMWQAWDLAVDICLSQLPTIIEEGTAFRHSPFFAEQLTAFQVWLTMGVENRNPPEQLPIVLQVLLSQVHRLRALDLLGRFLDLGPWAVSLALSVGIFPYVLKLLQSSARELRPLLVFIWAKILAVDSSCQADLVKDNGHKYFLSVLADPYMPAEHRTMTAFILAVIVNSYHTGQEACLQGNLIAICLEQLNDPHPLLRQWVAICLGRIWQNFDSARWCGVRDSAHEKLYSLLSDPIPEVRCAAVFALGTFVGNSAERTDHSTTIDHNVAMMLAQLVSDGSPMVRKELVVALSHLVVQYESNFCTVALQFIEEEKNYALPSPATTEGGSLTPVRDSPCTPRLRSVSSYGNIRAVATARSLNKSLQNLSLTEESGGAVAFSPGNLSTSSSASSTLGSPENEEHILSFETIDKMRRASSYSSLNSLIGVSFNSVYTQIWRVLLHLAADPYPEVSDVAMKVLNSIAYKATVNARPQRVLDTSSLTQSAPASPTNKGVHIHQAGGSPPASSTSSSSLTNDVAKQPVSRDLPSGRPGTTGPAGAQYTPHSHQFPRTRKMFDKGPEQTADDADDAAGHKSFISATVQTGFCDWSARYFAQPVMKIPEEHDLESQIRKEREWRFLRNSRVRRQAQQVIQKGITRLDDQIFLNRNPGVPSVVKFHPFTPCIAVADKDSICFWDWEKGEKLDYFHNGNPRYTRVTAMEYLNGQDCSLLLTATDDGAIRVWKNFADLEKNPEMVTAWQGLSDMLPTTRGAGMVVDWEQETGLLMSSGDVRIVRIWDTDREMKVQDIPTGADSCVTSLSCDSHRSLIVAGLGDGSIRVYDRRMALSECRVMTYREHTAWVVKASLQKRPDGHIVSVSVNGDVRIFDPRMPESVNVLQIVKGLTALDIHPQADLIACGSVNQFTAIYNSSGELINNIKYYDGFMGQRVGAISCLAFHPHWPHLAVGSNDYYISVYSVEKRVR

Regarding `CC(C)=CCC/C(C)=C/CC/C(C)=C/CSc1ccccc1C(=O)O` [FTS, farnesylthiosalicylic acid], the “association of AU1-mTOR and HA-raptor” value on mTOR-raptor complex [1] (FTS 50 μM, comparison with other mTOR inhibitors) was “decreased”. The results for the “amount of HA-raptor that coimmunoprecipitated with AU1-mTOR” value at mTOR-raptor complex [1] and on mTOR-raptor complex [2] were “decreased” and “progressive decrease”, respectively.
As for `CC(C)=CCC/C(C)=C/CSc1ccccc1C(=O)O` [GTS, S-geranylthiosalicylic acid, reference compound], the figures for the “amount of HA-raptor that coimmunoprecipitated with AU1-mTOR” value on mTOR-raptor complex [1] and at mTOR-raptor complex [2] were “progressive decreases” and “relatively little effect”, respectively.

For the origin of these results see patent US20070037887A1, “Blockade of mtor to prevent a hormonal adaptive response” (University of Virginia Patent Foundation, priority 2003, published 2007).
